According to patent US11400019B2, “Sustained release drug delivery systems with reduced impurities and related methods” (DURECT CORPORATION, priority 2020, dated 2022):
Structures can show the parent of a compound that is named as a salt. Where two headings read alike, the source gives them in different places.

Legend:
[1] = system: patients undergoing elective arthroscopic shoulder surgery; test: Example 13 trial: pain intensity and opioid rescue after arthroscopic shoulder surgery; format: in vivo, human
Procedure: Patients were screened 1 to 14 days before surgery at which time informed consent was obtained. Surgery was performed and the trial drug administered on Day 0. The trial was planned to be divided into two sequential cohorts, each with three treatment groups (a, b and c).
All patients received paracetamol (4 grams/day; 2 grams/day for body weight <66 kg for the first 72 hours) as background treatment. In case sufficient pain relief was not obtained, patients were allowed rescue medication in the form of morphine administered intravenously or orally, which consisted of oral morphine 10 mg at 1-hour intervals or, if unable to tolerate orally intake, intravenous (IV) morphine […] at 5-minute intervals. After 72 hours, subjects were allowed paracetamol and oral morphine on an as-needed basis. Patients recorded pain intensity as well as rescue medication in an electronic diary (eDiary).
Primary: The study had two primary endpoints. […] For the primary endpoints to be met, […] of PI on movement compared to placebo as well as superiority in total use of opioid analgesia needed to be shown. PI “on movement” reported on the NRS scale was summarized by treatment group and time, using descriptive statistics for continuous variables.
Time to first opioid rescue medication usage was defined as the duration between time of trial drug administration and the time of first opioid use

[2] = system: subjects undergoing elective outpatient laparoscopic cholecystectomy; test: Example 16 trial: pain intensity on movement after laparoscopic cholecystectomy; format: in vivo, human; conditions: Part 2 (N = 148 per group)
Procedure: Part 1: Pain intensity on movement measured at scheduled time points from 0 to 72 hours following test drug administration, adjusted for prior rescue medication use and analyzed by a mixed effect ANOVA model of repeated measures (MMRM).
Part 2: Pain intensity on movement measured at scheduled time points from 0 to 48 hours following test drug administration, adjusted for prior rescue medication use and analyzed by a mixed effect ANOVA model of repeated measures (MMRM).

[3] = system: subjects undergoing elective outpatient laparoscopic cholecystectomy; test: Example 16 trial: safety; format: in vivo
Excerpt: The trial included: 1) a randomized, parallel-group, double-blind, placebo-controlled study (Part 1) and a randomized, parallel-group, double-blind, bupivacaine HCl active-controlled study (Part 2). The trial evaluated the efficacy and safety of Formulation A (bupivacaine, benzyl alcohol, sucrose acetate isobutyrate) as a delivery system in subjects undergoing elective outpatient laparoscopic cholecystectomy.
There were no fatalities in this trial. […]

[4] = system: patients undergoing laparotomy, laparoscopic cholecystectomy or laparoscopically-assisted colectomy; test: Example 17 phase 3 trial: pain intensity and opioid use in general surgical procedures; format: in vivo, human; conditions: for Total Morphine-equivalent Opioid Medication Use, MEDD 0-72 hours, Median (Q1, Q3) / Repeated Measures Pain Intensity on Movement, All Timepoints 0-72 hr, LS Mean (SE): ITT; for Pain Intensity on Movement AUC 0-24 hours, LS Mean (SE) / Pain Intensity on Movement AUC 0-48 hours, LS Mean (SE) / Pain Intensity on Movement AUC 0-72 hours, LS Mean (SE) / Pain Intensity on Movement AUC 24-48 hours, LS Mean (SE) / Pain Intensity on Movement AUC 48-72 hours, LS Mean (SE): Log Pad and Opioid Pain Scores; for Repeated Measures Pain Intensity on Movement, All Timepoints 0-72 hr, LS Mean (SE): LogPad Scores Only
[5] = Example 17 trial: plasma total bupivacaine pharmacokinetics; format: in vivo; conditions: human
Procedure: Plasma PK samples were analyzed for determination of total bupivacaine concentration only and none of the samples were analyzed for determination of free drug concentration.

[6] = system: patients undergoing general surgical procedures; test: Example 17 trial: safety including Holter monitoring; format: in vivo, human; conditions: Safety Population
Excerpt: Patient safety was carefully monitored throughout the trial with traditional assessments of AEs, vital signs, routine laboratory testing, and Holter monitoring (i.e., continuous recording of electrocardiogram) for 3 days after dosing. Special attention was given to cardiovascular and neurological AE, as bupivacaine toxic effects are manifest in those two body systems. In addition, special assessments were done to monitor surgical wound condition and healing over the 30 days of the trial.

[7] = LOCF, ITT population, hours post-surgery
[8] = Cohort 2 (Laparoscopic Cholecystectomy)

CCCCN1CCCCC1C(=O)Nc1c(C)cccc1C (stereo not shown) [bupivacaine HCl, bupivacaine hydrochloride]
Total IV morphine equivalent dose of opioid rescue medication, Median ([1]; 0-72 hours after surgery, ITT population): 8.0 mg | median cumulative IV morphine-equivalent dose of opioids 0 to 72 hours ([1]; Formulation A 5 mL (660 mg) or bupivacaine HCl 20 mL (50 mg) subacromial, ITT): 8.0 mg | Pain intensity at rest normalized AUC 1-72 hours, Mean (SD) ([1]; ITT population): 2.33 (1.76) | Time to first use of opioid rescue medication, Median (95% CI) ([1]; ITT population, Kaplan-Meier estimates): 1.4 (1.0, 4.1) hours | Pain intensity on movement, mean AUC (1-24) [1, 7]: 5.82 | Pain intensity on movement, mean AUC (1-48) [1, 7]: 5.56 | Pain intensity on movement, mean AUC (1-72) [1, 7]: 5.16 | Pain intensity on movement, mean AUC (24-48) [1, 7]: 5.31 | Pain intensity on movement, mean AUC (48-72) [1, 7]: 4.38 | median time to first use of opioid rescue medication ([1]; single subacromial dose, ITT): 1.4 h | percentage of subjects opioid free during 72 hours after surgery ([1]; single subacromial dose, ITT): 27.6% | Pain intensity on movement 0 to 48 hours, Mean [2]: 5.87 | Fatal TEAE, number of subjects ([3]; Part 2 (N = 148 per group)): 0 | Fatal TEAE, percent of subjects ([3]; Part 2 (N = 148 per group)): (0.0%) | At Least One LogPad-Solicited TEAE, number of subjects ([3]; human, in vivo): 132 | At Least One LogPad-Solicited TEAE, percent of subjects ([3]; human, in vivo): (89.2%) | At Least One Serious TEAE, number of subjects ([3]; human, in vivo): 3 | At Least One Serious TEAE, percent of subjects ([3]; human, in vivo): (2.0%) | At Least One Serious and Related TEAE, number of subjects ([3]; human, in vivo): 0 | At Least One Serious and Related TEAE, percent of subjects ([3]; human, in vivo): (0.0%) | At Least One Severe and Related TEAE, number of subjects ([3]; human, in vivo): 0 | At Least One Severe and Related TEAE, percent of subjects ([3]; human, in vivo): (0.0%) | At Least One Spontaneously-reported TEAE, number of subjects ([3]; human, in vivo): 138 | At Least One Spontaneously-reported TEAE, percent of subjects ([3]; human, in vivo): (93.2%) | At Least One TEAE Leading to Study Discontinuation, number of subjects ([3]; human, in vivo): 1 | At Least One TEAE Leading to Study Discontinuation, percent of subjects ([3]; human, in vivo): (0.7%) | At Least One TEAE, number of subjects ([3]; human, in vivo): 146 | At Least One TEAE, percent of subjects ([3]; human, in vivo): (98.6%) | TEAE Maximum Relationship to Study Drug: Not Related, number of subjects ([3]; human, in vivo): 42 | TEAE Maximum Relationship to Study Drug: Not Related, percent of subjects ([3]; human, in vivo): (28.4%) | TEAE Maximum Relationship to Study Drug: Related, number of subjects ([3]; human, in vivo): 104 | TEAE Maximum Relationship to Study Drug: Related, percent of subjects ([3]; human, in vivo): (70.3%) | TEAE Maximum Severity: Mild, number of subjects ([3]; human, in vivo): 92 | TEAE Maximum Severity: Mild, percent of subjects ([3]; human, in vivo): (62.2%) | TEAE Maximum Severity: Moderate, number of subjects ([3]; human, in vivo): 49 | TEAE Maximum Severity: Moderate, percent of subjects ([3]; human, in vivo): (33.1%) | TEAE Maximum Severity: Severe, number of subjects ([3]; human, in vivo): 5 | TEAE Maximum Severity: Severe, percent of subjects ([3]; human, in vivo): (3.4%) | treated subjects with treatment-emergent serious adverse events ([3]; human, in vivo): 3 subjects | Total Morphine-equivalent Opioid Medication Use, MEDD 0-72 hours, Median (Q1, Q3) ([4]; Cohort 1 (Laparotomy)): 63.0 (34.0, 152.0) mg | Pain Intensity on Movement AUC 0-24 hours, LS Mean (SE) ([4]; Cohort 1 (Laparotomy)): 6.3 (0.48) | Pain Intensity on Movement AUC 0-48 hours, LS Mean (SE) ([4]; Cohort 1 (Laparotomy)): 6.0 (0.49) | Pain Intensity on Movement AUC 0-72 hours, LS Mean (SE) ([4]; Cohort 1 (Laparotomy)): 5.8 (0.51) | Pain Intensity on Movement AUC 24-48 hours, LS Mean (SE) ([4]; Cohort 1 (Laparotomy)): 5.7 (0.56) | Pain Intensity on Movement AUC 48-72 hours, LS Mean (SE) ([4]; Cohort 1 (Laparotomy)): 5.3 (0.60) | Repeated Measures Pain Intensity on Movement, All Timepoints 0-72 hr, LS Mean (SE) ([4]; Cohort 1 (Laparotomy)): 5.9 (0.35) | Total Morphine-equivalent Opioid Medication Use, MEDD 0-72 hours, Median (Q1, Q3) [4, 8]: 22.5 (12.5, 34.5) mg | Pain Intensity on Movement AUC 0-24 hours, LS Mean (SE) [4, 8]: 4.8 (0.47) | Pain Intensity on Movement AUC 0-48 hours, LS Mean (SE) [4, 8]: 4.4 (0.45) | Pain Intensity on Movement AUC 0-72 hours, LS Mean (SE) [4, 8]: 3.9 (0.45) | Pain Intensity on Movement AUC 24-48 hours, LS Mean (SE) [4, 8]: 4.0 (0.22) | Pain Intensity on Movement AUC 48-72 hours, LS Mean (SE) [4, 8]: 2.8 (0.52) | Repeated Measures Pain Intensity on Movement, All Timepoints 0-72 hr, LS Mean (SE) [4, 8]: 3.6 (0.32) | Cmax ([5]; Cohort 1): 251 ng/mL | AUC(0-t) ([5]; Cohort 1, read-out: AUC(0-72), mean): 8460 ng·h/mL | AUC(0-t) ([5]; Cohort 1, read-out: AUC(0-last), mean): 7780 ng·h/mL | Tmax ([5]; Cohort 1, read-out: Tmax, median): 16 h | Cmax ([5]; Cohort 2): 371 ng/mL | AUC(0-t) ([5]; Cohort 2, read-out: AUC(0-72), mean): 6770 ng·h/mL | AUC(0-t) ([5]; Cohort 2, read-out: AUC(0-last), mean): 6620 ng·h/mL | Tmax ([5]; Cohort 2, read-out: Tmax, median): 1 h | At Least One Cardiovascular TEAE ([6]; Cohort 1): 7 (39%) | At Least One Neurological TEAE ([6]; Cohort 1): 4 (22%) | At Least One Non-Opioid TEAE ([6]; Cohort 1): 17 (94%) | At Least One Serious TEAE ([6]; Cohort 1): 4 (22%) | At Least One Serious and Related TEAE ([6]; Cohort 1): 0 | At Least One Severe and Related TEAE ([6]; Cohort 1): 0 | At Least One TEAE ([6]; Cohort 1): 17 (94%) | At Least One TEAE Leading to Study Discontinuation ([6]; Cohort 1): 0 | At Least One Wound Infection REAE ([6]; Cohort 1): 2 (11%) | Deaths ([6]; Cohort 1): 0 | TEAE Maximum Relationship to Study Drug: Not Related ([6]; Cohort 1): 13 (72%) | TEAE Maximum Relationship to Study Drug: Related ([6]; Cohort 1): 4 (22%) | TEAE Maximum Severity: Mild ([6]; Cohort 1): 2 (11%) | TEAE Maximum Severity: Moderate ([6]; Cohort 1): 11 (61%) | TEAE Maximum Severity: Severe ([6]; Cohort 1): 4 (22%) | At Least One Cardiovascular TEAE ([6]; Cohort 2): 2 (10%) | At Least One Neurological TEAE ([6]; Cohort 2): 10 (50%) | At Least One Non-Opioid TEAE ([6]; Cohort 2): 19 (95%) | At Least One Serious TEAE ([6]; Cohort 2): 1 (5%) | At Least One Serious and Related TEAE ([6]; Cohort 2): 0 | At Least One Severe and Related TEAE ([6]; Cohort 2): 1 (5%) | At Least One TEAE ([6]; Cohort 2): 20 (100%) | At Least One TEAE Leading to Study Discontinuation ([6]; Cohort 2): 1 (5%) | At Least One Wound Infection REAE ([6]; Cohort 2): 1 (5%) | Deaths ([6]; Cohort 2): 0 | TEAE Maximum Relationship to Study Drug: Not Related ([6]; Cohort 2): 10 (50%) | TEAE Maximum Relationship to Study Drug: Related ([6]; Cohort 2): 10 (50%) | TEAE Maximum Severity: Mild ([6]; Cohort 2): 2 (10%) | TEAE Maximum Severity: Moderate ([6]; Cohort 2): 13 (65%) | TEAE Maximum Severity: Severe ([6]; Cohort 2): 5 (25%)
